Patent publication US20230226135A9, “ACETYLCHOLINE MODULATION OF IMMUNE FUNCTION” (BCell Solutions, Inc., priority 2019, published 2023)

Columns and labels:
splenic B cells [1] = assay: alpha 7 nAChR expression on splenic B cells after TLR 9 agonist CpG (flow cytometry); type: cell-based, mouse; conditions: after CpG treatment
Procedure: Cell Culture. Mice were sacrificed and spleens were removed. The tissues were dissociated, from which single cell suspensions were made by passing the spleens through 40 μm cell strainers. Red blood cells were lysed using ACK Buffer (Sigma, Inc). Cells were then cultured with TLR ligands at the designated concentrations at 1.010^6 cells/mL in 6 well plates. Cells were grown in RPMI 1640 (Invitrogen) supplemented with 5% fetal bovine serum (Invitrogen) in a humidified 5% CO2 incubator at 37° C. for the designated time period.
Isolation of Splenic Cells. Splenocytes were isolated from 8 week old C57BL/6J mice. Following sacrifice, spleens were removed and splenocytes isolated as above. Cells were then resuspended in complete RPMI and were cultured with the TLR ligands at the designated concentrations at 10^6 cells/mL in 6 well plates. […]
Antibodies and Flow Cytometry. […] Following staining, cells were analyzed comparing each level of staining to the appropriate isotype control on a Beckman Coulter Cytoflex benchtop flow cytometer. Data was analyzed using FlowJo software (Tree Star Inc.).
In FIG. 1A the X-axis represents fluorescence intensity of MHC class II expression on untreated splenic B cells from a C57BL6 mouse. […] The X axis reflects the relative fluorescence intensity before (green histogram) and after treatment with the TLR 9 agonist CpG (blue histogram).

splenic B cells [2] = assay: CFA-sensitized mice treated with Peptide with or without MLA, FACS of splenic B cells; type: in vivo
Procedure: SUMMARY: A study was conducted to evaluate a potential alpha7 nAChR anti-inflammatory mechanism of the MKR-4 peptide, using the alpha7 nAChR antagonist methyllycaconitine (MLA). After enrollment, animals in Groups 2-4 were sensitized ID at the base of the tail with 0.1 mL FCA on Day 1. On Days 2, 3, 5 & 7 Groups were then dosed intraperitoneally (IP) with either: peptide and MLA in combination (2 mg/kg and 6 mg/kg, respectively); peptide (2 mg/kg) and MLA vehicle (saline) in combination; or peptide vehicle (saline) and MLA vehicle (saline). Animals were dosed once on Study Day 2 (MLA or MLA vehicle), and Days 3, 5 & 7 (Peptide or Peptide vehicle, MLA or MLA vehicle) as described in Table 2 below. Body weights were recorded on Study Days 0 & 8. Mice were euthanized for necropsy on Study Day 8, and serum and whole spleens were collected from all animals and sent to the sponsor for internal FACS analysis. Toxicity and Peptide mechanistic evaluation was based on absolute body weight change, spleen weights and sponsor FACS analysis (not included in report).
Antibodies and Flow Cytometry. Single cell suspensions were made of tissues or cells harvested from culture and stained with the following monoclonal antibodies: a monoclonal antibody directed against mouse alpha 7 nicotinic acetylcholine receptor (alpha 7 nAChR) (Santa Cruz Biotechnology); anti-mouse MHC Class II (M5114), and anti-mouse CLIP 15G4, Santa Cruz. Following staining, cells were analyzed comparing each level of staining to the appropriate isotype control on a Beckman Coulter Cytoflex benchtop flow cytometer. Data was analyzed using FlowJo software (Tree Star Inc.).
Experimental Design: On Study Day 0, mice were weighed and randomized by body weight into treatment groups. Following randomization, on Study Day 1, Groups 2-4 were sensitized ID at the base of the tail with 0.1 mL of FCA. When MLA and Peptide (FRIMAVLAS (SEQ ID NO: 389))—or their vehicles—were dosed on the same day, the MLA antagonist or vehicle was dosed 1 hour before the Peptide or its vehicle.
On Study Day 8, mice were anesthetized with Isoflurane (VetOne, Cat #502017) and bled to exsanguination followed by cervical dislocation for necropsy and tissue collection.

CD8+ T cells = assay: CAP-induced expansion of CD8+ T cells with or without α7nAChR antagonist; type: in vivo; conditions: with CAP
[3] = Dosing formulation storage and stability; type: physicochemical; conditions: 0.6 mg/mL in saline, frozen at -20 C
Procedure: Test Article Formulation Instructions & Calculations: Peptide dosing solution (0.2 mg/mL) was made fresh daily within 1 hour of use by diluting 0.09 mL of 5 mg/mL DMSO stock into 2.11 mL sterile saline. DMSO stock was kept at 4 C, then refrozen (to avoid repeated freeze-thaw cycles). Still, stock was relatively “solid” even at 4 C.
MLA antagonist dosing solution (0.6 mg/mL) was made on Day 2 by diluting the entire 5 mg in the sealed vial with 8.3 mL of sterile saline and aliquoting out ˜1.1 mL in each of seven 2 mL cryovials and freezing at −20 C. Four vials were used in the experiment, each thawed within 1 hour of use. Three vials remain frozen.
Dosing Formulations and Vehicle Storage & Stability: Saline vehicle is stable at 4 C for months. Peptide dosing solutions were made up and used fresh daily. […] MLA frozen “stock” solutions were stable for up to 1 month.

CLIP+ B cells = assay: CFA-induced arthritis model, CAP depletion of B cells with or without α7nAChR antagonist; type: in vivo, mice; conditions: co-treated with CAP, CFA model
Procedure: FIGS. 11A-11B. […] In this study, CAP was administered at 3 days after CFA, then once daily every 3 days, until day 10 after CFA.
The next series of experiments are focused on the effects of CAP on splenic immune cells. […] As part of this experiment, the mice were co-treated with CAP and the alpha-7 nicotinic acetylcholine receptor (α7nAChR) antagonist, methyllycaconitine (MCA).

[4] = test system: blood brain barrier (BBB); assay: Intravital microscopy of BBB permeability and lymphocyte adhering/rolling in pial venules; type: in vivo, C57 BL/6J mice; conditions: P3C i.p., 24 hours
Source text: Whether intranasal infection with Streptococcus pyogenes would induce blood-brain barrier permeability in C57 BL/6J mice by a TLR-dependent mechanism was examined. Immediately following craniotomy, mice were placed under an intravital microscope to study vascular permeability and leukocytes. Permeability of cerebral blood vessels was observed using FITC-dextran fluorescent dye and, tracing of leukocytes is observed by labeling such cells with Rhodamine-6G. Intranasal infection with Streptococcus pyogenes (gram positive) increased BBB permeability (FIG. 4) and the number of adherent or rolling lymphocytes (FIG. 4) within 24 hours post-infection, compared to saline treated controls.
Methods: To test the hypothesis that intranasal infection may increase BBB permeability, we exposed mice to GAS via intranasal infection with Streptococcus pyogenes (GAS). We assessed BBB permeability using intravital microscopy, and we characterized the immune response to GAS using flow cytometric analysis of nasal associated lymphoid tissue (NALT), spleen, and brain.
Intranasal infection: Isoflurane gas was employed to briefly anesthetize mice (1-2 minutes). Once anesthetized, 7.5 uL of streptococcal bacterial suspension (OD600=0.5-0.6) was placed on each nares (outer nostril) of mouse. Control mice received intranasal inoculation with vehicle (PBS). The droplets were inhaled into nasal sinuses. This small volume avoids inoculation of the lungs, but reproducibly results in colonization of nasal-associated lymphoid tissue (NALT, Park 2003; Wang 2010).
Intraperitoneal injection: The TLR 1/2 agonist, Pam-3-Cys (25 ug/mouse; Pam3CSK4, InvivoGen, San Diego Calif.) was intraperitoneally (right side) injected into mice 24 hours before intravital microscopy. P3C causes immune cell activation and polycolonal expansion of B-lymphocytes by Toll-Like receptor ligation (Newell 2010). Control mice received equal volume of vehicle (PBS) intraperitoneally.
MHC class II-targeted proprietary peptide (TPP, Elim Biopharmaceuticals Inc., Hayward Calif.; also see Newell 2010) was administered intraperitoneally (5 ug/mouse, left side), sometimes in conjunction with P3C (right side). TPP was dissolved in DMSO for a final concentration of 2.5% DMSO in PBS. Control mice received vehicle (2.5% DMSO in PBS) intraperitoneally.
Preparation of Mice: Mice were anesthetized with an (i.p.) injection of 50% urethane (Sigma-Aldrich, U2500) in PBS ([…]) and maintained on heating pad. Anesthetic plane was assessed throughout preparation and experiments, by response to toe pinch. If needed, urethane supplement was given at 10% of original dose volume. To prepare mice tails for intravenous (i.v.) dye injection we maintained anesthetized mice on a heating pad for 10-15 minutes, and then briskly wiped tails (toward tail-end) with 70% ethanol wipes to remove scales/hair and increase vasodilation. Immediately following tail wiping, Fluorescein dextran 10 kDa (10 mg/mL, Sigma-Aldrich, FD10S) was administered (2 uL/g mouse) via right lateral tail vein and, Rhodamine 6G (0.2 mg/mL, Sigma-Aldrich, 83697) was administered (1.6 uL/g mouse) via left lateral tail vein. When needed, tail was wiped multiple times to ensure clear visualization of tail veins. Following successful (i.v.) injection of dyes, mice underwent craniotomy.
Craniotomy: A craniotomy (removal of a small area of skull) was performed to expose the cerebrum and allow imaging of cerebral microvasculature (specifically pial vessels of pia mater). First, an incision across the midline of the scalp was made to expose the right parietal bone. The skull was then carefully marked with a waterproof marker, designating the area, 1 mm posterior from the Bregma and 4 mm lateral from the midline, to be removed (craniotomy diameter: 2.5 mm). Next, the craniotomy was performed with a drill ensuring the dura mater was not cut. […]

In the case of 5′-tcgtcgttttgtcgttttgtcgtt-3′ [CpG], the “relative level of expression of nAChR per cell” value (splenic B cells [1]) is reported as “increases” and the “total splenocytes that express alpha 7 nAChR” value (splenic B cells [1]; untreated 9%) is reported as 37.6%.

In the case of `CCN1C[C@]2(COC(=O)c3ccccc3N3C(=O)C[C@H](C)C3=O)CC[C@H](OC)[C@@]34[C@@H]5C[C@H]6[C@H](OC)[C@@H]5[C@](O)(C[C@@H]6OC)[C@@](O)([C@@H](OC)[C@H]23)[C@@H]14` [MLA, methyllycaconitine, reference compound], the “effect of MLA on Peptide induced reduction in CLIP+ B cells” value (splenic B cells [2]; CFA treated mice, MLA 6 mg/kg IP 1 hour before Peptide) is reported as “reversed”, the “percentage of splenic B cells” value (splenic B cells [2]; CFA treated, Peptide treated (2 mg/kg) and treated with MLA (6 mg/kg IP)) is reported as 44.8% and the “effect of α7nAChR antagonist on CAP-induced CD8+ T cell expansion” value (CD8+ T cells) is reported as “reversed”. For the same molecule, the “effect of α7nAChR antagonist on CAP-induced CD8+ T cell expansion” value (CD8+ T cells; listed as MCA) was “blocked”, the “stability of frozen stock solutions” value [3] was “up to 1 month” and the “effect of α7nAChR antagonist on CAP-induced decrease in B cell expansion” value (CLIP+ B cells) was “reversed”. For the same molecule, the “effect of α7nAChR antagonist on CAP-induced decrease in B cell expansion” value (CLIP+ B cells; listed as MCA) was “prevented”.

With Pam-3-Cys [P3C, reference compound] the “largest observed diameter of adherent lymphocytes” value [4] was 15 um, the “number of rolling lymphocytes” value ([4]; vs control, p<0.01) was “significantly increased” and the “number of adherent lymphocytes” value ([4]; vs control, p<0.05) was “significantly increased”. The “average diameter of adherent lymphocytes” value ([4]; control 5 um) was 10 um.
